Assay results: PubChem BioAssay AID330 (DTP/NCI, 2004)
Values joined by “and” are separate entries in the source; they are usually repeats but may differ in a detail not shown here. Equal entries are not always repeated. Inconclusive results and toxic doses are left out. Rule for the calls: active = survival T/C of 150% or more; inactive = T/C below 125% in these data.

Tested on: P388 leukemia ip, CD2F1 mice, survival T/C
Test: NCI In Vivo Anticancer Drug Screen. Data for tumor model P388 Leukemia (intraperitoneal) in CD2F1 (CDF1) mice
Conditions: endpoint: median survival time, higher = longer survival
In short: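 Mice carrying the transplanted tumor received test compound or vehicle. Survival was recorded in each group, and the value is the treated-group measurement divided by that of the vehicle-treated control group.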

[1] = dose: 50.0 mg/kg/injection, schedule: Q01DX005 (ip), vehicle: saline with Tween-80
[2] = dose: 100.0 mg/kg/injection, schedule: Q01DX005 (ip), vehicle: saline with Tween-80
[3] = dose: 60.0 mg/kg/injection, schedule: Q01DX005 (ip), vehicle: saline with Tween-80
[4] = dose: 120.0 mg/kg/injection, schedule: Q01DX005 (ip), vehicle: saline with Tween-80
[5] = dose: 25.0 mg/kg/injection, schedule: Q01DX009 (ip), vehicle: saline with Tween-80
[6] = dose: 50.0 mg/kg/injection, schedule: Q01DX009 (ip), vehicle: saline with Tween-80
[7] = dose: 200.0 mg/kg/injection, schedule: Q01DX009 (ip), vehicle: saline with Tween-80
[8] = dose: 100.0 mg/kg/injection, schedule: Q01DX001 (ip), vehicle: saline with Tween-80
[9] = dose: 200.0 mg/kg/injection, schedule: Q01DX001 (ip), vehicle: saline with Tween-80
[10] = dose: 60.0 mg/kg/injection, schedule: Q01DX005 (ip), vehicle: saline
[11] = dose: 120.0 mg/kg/injection, schedule: Q01DX005 (ip), vehicle: saline
[12] = dose: 60.0 mg/kg/injection, schedule: Q01DX005 (ip), vehicle: Klucel (hydroxypropylcellulose) (HPC)
[13] = dose: 100.0 mg/kg/injection, schedule: Q01DX009 (ip), vehicle: saline
[14] = dose: 50.0 mg/kg/injection, schedule: Q01DX009 (ip), vehicle: saline
[15] = dose: 100.0 mg/kg/injection, schedule: Q04DX003 (ip), vehicle: saline
[16] = dose: 200.0 mg/kg/injection, schedule: Q04DX003 (ip), vehicle: saline
[17] = dose: 50.0 mg/kg/injection, schedule: Q01DX005 (ip), vehicle: Klucel (hydroxypropylcellulose) (HPC)
[18] = dose: 100.0 mg/kg/injection, schedule: Q01DX005 (ip), vehicle: Klucel (hydroxypropylcellulose) (HPC)
[19] = dose: 200.0 mg/kg/injection, schedule: Q01DX005 (ip), vehicle: Klucel (hydroxypropylcellulose) (HPC)

Measured: T/C

CC1(C)CCC2(C(=O)O)CCC3(C)C(=CCC4C5(C)CC(O)C(O)C(C)(C(=O)O)C5CCC43C)C2C1 (configuration not stated)
inactive: dose: 1.0 mg/kg/injection, schedule: Q01DX005 (ip), vehicle: saline 96 % of control | dose: 2.03 mg/kg/injection, schedule: Q01DX005 (ip), vehicle: saline 94 % of control | dose: 4.06 mg/kg/injection, schedule: Q01DX005 (ip), vehicle: saline 87 % of control | dose: 8.12 mg/kg/injection, schedule: Q01DX005 (ip), vehicle: saline 90 % of control

COc1cc2oc(-c3ccc(O)cc3O)c(CC=C(C)C)c(=O)c2c(O)c1/C=C/C(C)C
inactive: dose: 1.56 mg/kg/injection, schedule: Q01DX009 (ip), vehicle: Klucel (hydroxypropylcellulose) (HPC) 107 % of control | dose: 3.12 mg/kg/injection, schedule: Q01DX009 (ip), vehicle: Klucel (hydroxypropylcellulose) (HPC) 105 % of control | dose: 6.25 mg/kg/injection, schedule: Q01DX009 (ip), vehicle: Klucel (hydroxypropylcellulose) (HPC) 100 % of control | dose: 12.5 mg/kg/injection, schedule: Q01DX009 (ip), vehicle: Klucel (hydroxypropylcellulose) (HPC) 98 % of control

NNC(=O)C(=O)N/N=C(/CC1(O)C(=O)Nc2ccccc21)c1ccc([N+](=O)[O-])cc1 (configuration not stated)
inactive: [1] 103 % of control | [2] 94 % of control | dose: 200.0 mg/kg/injection, schedule: Q01DX005 (ip), vehicle: saline with Tween-80 90 % of control

CC1(CO)CCCC1NCCNC1CCCC1(C)CO (configuration not stated)
inactive: [3] 102 % of control | [4] 105 % of control

O=C(O)CC(=O)c1ccccc1
inactive: [5] 102 % of control | [6] 105 % of control | [7] 89 % of control

CCCCCCCCCCCCCCCC[N+](C)(C)CCN=[N+]=[N-]
inactive: dose: 12.5 mg/kg/injection, schedule: Q01DX009 (ip), vehicle: saline with Tween-80 110 % of control | [5] 107 % of control

CNC1=C(C)C(=O)C(C)=C(C(C)(C)CC(=O)n2cc(F)c(=O)[nH]c2=O)C1=O
inactive: [8] 117 % of control | [9] 122 % of control

Cc1cc(C)cc(C(=O)NCc2ccc[n+]([O-])c2)c1
inactive: [10] 97 % of control | [11] 94 % of control

Cc1cc(C)c(C(CC(=O)O)C(CC(=O)O)c2c(C)cc(C)cc2C)c(C)c1 (configuration not stated)
inactive: [12] 90 % of control

OCC1OC(n2ncc3nccnc32)C(O)C1O (configuration not stated)
inactive: dose: 32.0 mg/kg/injection, schedule: Q01DX002 (ip), vehicle: saline with Tween-80 98 % of control and 114 % of control | dose: 64.0 mg/kg/injection, schedule: Q01DX002 (ip), vehicle: saline with Tween-80 98 % of control and 109 % of control | dose: 128.0 mg/kg/injection, schedule: Q01DX002 (ip), vehicle: saline with Tween-80 112 % of control and 114 % of control

COc1cccc(O)c1O
inactive: [13] 101 % of control | dose: 200.0 mg/kg/injection, schedule: Q01DX009 (ip), vehicle: saline 100 % of control | dose: 400.0 mg/kg/injection, schedule: Q01DX009 (ip), vehicle: saline 111 % of control

Nc1nc2c(nnn2C2OC(CO)C(O)C2O)c(=O)[nH]1 (configuration not stated)
inactive: [1] 113 % of control | [2] 101 % of control

COc1cc(/C=N/O)c(SC)cc1OC
inactive: dose: 100.0 mg/kg/injection, schedule: Q04DX002 (ip), vehicle: Klucel (hydroxypropylcellulose) (HPC) 110 % of control | dose: 200.0 mg/kg/injection, schedule: Q04DX002 (ip), vehicle: Klucel (hydroxypropylcellulose) (HPC) 111 % of control

CCCCCCCCCCCC(=O)N(CCCC)CCCC
inactive: dose: 37.5 mg/kg/injection, schedule: Q01DX009 (ip), vehicle: Klucel (hydroxypropylcellulose) (HPC) 100 % of control | dose: 75.0 mg/kg/injection, schedule: Q01DX009 (ip), vehicle: Klucel (hydroxypropylcellulose) (HPC) 98 % of control | dose: 150.0 mg/kg/injection, schedule: Q01DX009 (ip), vehicle: Klucel (hydroxypropylcellulose) (HPC) 92 % of control

CC1(CCl)COP(=O)(NN)OC1 (configuration not stated)
inactive: [10] 101 % of control | [11] 102 % of control

CC[N+](CC)(CC)CC(=O)c1ccc(Br)cc1
inactive: dose: 12.5 mg/kg/injection, schedule: Q01DX009 (ip), vehicle: saline 100 % of control | dose: 25.0 mg/kg/injection, schedule: Q01DX009 (ip), vehicle: saline 104 % of control | [14] 95 % of control

ClC(Cl)=Nc1ccc(Cl)cc1Cl
inactive: [14] 100 % of control | [13] 89 % of control

CCOC(=O)NC(NC(=O)OCC)c1ccc(Cl)cc1
inactive: [15] 99 % of control | [16] 94 % of control | dose: 400.0 mg/kg/injection, schedule: Q04DX003 (ip), vehicle: saline 107 % of control

CC(=O)C1=CN(Cc2ccccc2)C=C(C(C)C)C1
inactive: dose: 50.0 mg/kg/injection, schedule: Q04DX003 (ip), vehicle: saline 98 % of control | dose: 50.0 mg/kg/injection, schedule: Q04DX003 (ip), vehicle: suspension in saline 104 % of control | [15] 101 % of control | dose: 100.0 mg/kg/injection, schedule: Q04DX003 (ip), vehicle: suspension in saline 103 % of control | [16] 104 % of control | dose: 200.0 mg/kg/injection, schedule: Q04DX003 (ip), vehicle: suspension in saline 105 % of control

O=C(NC1C=Nc2ccc(Cl)cc2NC1=O)c1ccccc1Cl (configuration not stated)
inactive: [3] 92 % of control | [4] 95 % of control | dose: 240.0 mg/kg/injection, schedule: Q01DX005 (ip), vehicle: saline with Tween-80 100 % of control

CC(=O)Nc1ccccc1CO
inactive: dose: 25.0 mg/kg/injection, schedule: Q01DX005 (ip), vehicle: Klucel (hydroxypropylcellulose) (HPC) 97 % of control | [17] 100 % of control | [18] 100 % of control | [19] 100 % of control

COC(=O)C1(C(=O)OC)O[C@@H](c2ccccc2)[C@H]2C(=O)N(C)C(=O)[C@H]21
inactive: [12] 99 % of control | dose: 120.0 mg/kg/injection, schedule: Q01DX005 (ip), vehicle: Klucel (hydroxypropylcellulose) (HPC) 101 % of control | dose: 240.0 mg/kg/injection, schedule: Q01DX005 (ip), vehicle: Klucel (hydroxypropylcellulose) (HPC) 110 % of control

CC(=O)C1(O)CCC2(O)C3(O)CC=C4CC(O)CCC4(C)C3CC(OC(=O)c3ccc(O)cc3)C12C (configuration not stated)
inactive: dose: 11.75 mg/kg/injection, schedule: Q01DX005 (ip), vehicle: distilled water + Tween-80 + alcohol 93 % of control | dose: 23.5 mg/kg/injection, schedule: Q01DX005 (ip), vehicle: distilled water + Tween-80 + alcohol 94 % of control | dose: 47.0 mg/kg/injection, schedule: Q01DX005 (ip), vehicle: distilled water + Tween-80 + alcohol 95 % of control | dose: 94.0 mg/kg/injection, schedule: Q01DX005 (ip), vehicle: distilled water + Tween-80 + alcohol 94 % of control

Cc1ccc([N+](=O)[O-])c2ccccc12
inactive: dose: 50.0 mg/kg/injection, schedule: Q01DX009 (ip), vehicle: Klucel (hydroxypropylcellulose) (HPC) 113 % of control and 97 % of control | [6] 109 % of control | dose: 100.0 mg/kg/injection, schedule: Q01DX009 (ip), vehicle: Klucel (hydroxypropylcellulose) (HPC) 100 % of control and 98 % of control | dose: 100.0 mg/kg/injection, schedule: Q01DX009 (ip), vehicle: saline with Tween-80 100 % of control | dose: 200.0 mg/kg/injection, schedule: Q01DX009 (ip), vehicle: Klucel (hydroxypropylcellulose) (HPC) 103 % of control and 120 % of control | [7] 96 % of control | dose: 400.0 mg/kg/injection, schedule: Q01DX009 (ip), vehicle: Klucel (hydroxypropylcellulose) (HPC) 86 % of control and 97 % of control

CC(=O)N(C(C)=O)c1cnc2c(nc3cc(C)ccn32)c1C
inactive: [8] 92 % of control | [9] 98 % of control

BrCCCOc1ccccc1Br
inactive: [17] 101 % of control | [18] 97 % of control | [19] 105 % of control

O=C(c1ccccc1)C(O)(CC(c1ccccc1)[P+](c1ccccc1)(c1ccccc1)c1ccccc1)c1ccccc1 (configuration not stated)
inactive: dose: 1.32 mg/kg/injection, schedule: Q01DX009 (ip), vehicle: saline with Tween-80 90 % of control | dose: 2.0 mg/kg/injection, schedule: Q01DX009 (ip), vehicle: saline with Tween-80 104 % of control | dose: 3.0 mg/kg/injection, schedule: Q01DX009 (ip), vehicle: saline with Tween-80 113 % of control | dose: 4.5 mg/kg/injection, schedule: Q01DX009 (ip), vehicle: saline with Tween-80 118 % of control
